How the values were obtained:
Assay type in all cases: in vivo, BALB/c mice
[1] = test system: OVA-sensitized/challenged mouse model; assay: Preliminary determination of total serum IgE level in OVA-sensitized/challenged mouse model; settings: 30 mg/kg PO 1 h prior to OVA inhalation
Protocol: In order to found the purified extract showing more pharmacologically potent activity than the crude extract prepared in comparative Example, following preliminary test was performed by the method disclosed in the literature (Elias, J. A. et al., J. Clin. Invest., 111, pp 297-297, 2003).
1-1. Animal Sensitization and Airway Challenge
(§1) Specific pathogen-free female BALB/c mice (about 20 g), aged 6 weeks, which were routinely screened serologically for relevant respiratory pathogens, were purchased from ORIENT Co. (Seoul, Korea) and acclimated with the experimental environment for 1 week.
(§2) Briefly, mice were sensitized by intraperitoneal injection of 20 μg OVA (Ovalbumin; A5503, Sigma, St. Louis, Mo.), which was emulsified in 2 mg aluminum hydroxide in 200 μl of PBS buffer (pH 7.4), biweekly. The mice were challenged through the airways with OVA (1% in PBS) for 30 min using an ultrasonic nebulizer (NE-U12; Omron Corp., Tokyo, Japan) from the 28th day to 34th day after the initial sensitization. 24 hrs after the antigen treatment, the airway hyperresponsiveness was determined and the mice were sacrificed 48 hrs after the last challenge. The mice were sacrificed with an overdose of pentobarbital (Entobal®, Hanrim Pharm. Co. Ltd.) 24 h after the last challenge, and a tracheotomy was performed. […]

[2] = test system: OVA-sensitized/challenged mouse model; assay: Airway hyperresponsiveness test (Penh, whole body plethysmography, methacholine); settings: 30 mg/kg PO
Protocol: In order to confirm the anti-asthmatic effect of test samples prepared in Examples using by airway hyperresponsiveness test in a OVA-sensitized/challenged mouse model, following test was performed by the method disclosed in the literature (Elias, J. A. et al., J. Clin. Invest., 111, pp 297-297, 2003).
as §1
as §2, with “performed. After […] of physiological saline solution (PBS) was instilled into the lungs, bronchoalveolar lavage fluid (BALF) was obtained by aspiration three times (total 1.5 ml) via tracheal cannulation.” for “performed.”
In order to evaluate the airway hyperresponsiveness of the mice, the airway resistance was determined using by apparatus (One chamber whole body plethymography, OCP3000, All Medicus, Seoul. Korea) and the determined value was statistically calculated by Pehn value (Enhance Pause) reflecting on the degree of airway obstruction. The Penh value was determined for 3 mins by the process of determining the basal value at the eupnea phase and determining the Penh value after inhaling PBS with Ultrasonic nebulizer (NE-U12, IMRON Corp., Tokyo, JAPAN) for 3 mins.
Thereafter, various concentrations of methacholine (A2251, Sigma, St. Louis, Mo.), 12, 25 and 50 mg/ml, were inhaled with increasing concentration to determine the Pehn values. The increase of Penh value was expressed as percentage (%) after the methacholine inhalation and the Penh value of basal line was set to 100%. […]

[3] = test system: OVA-sensitized/challenged mouse model; assay: Level of eosinophil and inflammatory cells in BALF; settings: 30 mg/kg PO
Protocol: In order to confirm the inhibition effect of test samples prepared in Examples on the level of eosinophil and inflammatory cells in bronchoalveolar fluid (BALF), following test was performed by the method disclosed in the literature (Chen M. et al., Immunolgy, pp 376-384, 2011).
The bronchoalveolar lavage fluid (BALF) prepared in Experimental Example 1 was recovered to determine the level of inflammatory cells.
The total inflammatory cell number was assessed by the counting of cells in at least five squares of a hemocytometer after excluding dead cells by staining with trypan blue (Daigle I. et al., Swiss Med Wkly, 131, pp 231-7, 2001). 100 μl of BALF was loaded onto a slide and centrifuged (200×g, 4° C., 10 min) to fix the cells onto the slide using a Cellspin machine (Cyto12.5+clip5, Hanil Science Industrial, Korea). The cells were stained by Diff-Quick® Stain reagents (Sysmex, Cat No. 38721, Switzerland) according to the manufacturer's instructions. Statistical significance was determined by Student's two-tailed t-test for independent means and the critical level for significance was set at P<0.05.

[4] = test system: OVA-sensitized/challenged mouse model; assay: Goblet cell plasia, PAS staining of lung tissue; settings: ratio of goblet cell in bronchiolar epithelial cell; 30 mg/kg PO
Protocol: In order to confirm the anti-asthmatic effect of test samples prepared in Examples, following goblet cell plasia analysis on broncho-alveolar tissue was performed by the method disclosed in the literature (Lee K S. et al., FASEB J., 20, pp 455-465, 2006).
The delivered lung tissues of BALB/c mice which had not perform broncho-alveolar lavage was fixed for 24 h in 10% neutral-buffered formalin. After being embedded in paraffin, then made into 4-μm thickness sections, the tissue was stained with Periodic acid Schiff (PAS stain kit, T-K7308, IMEB, CA, USA) to determine the ratio of goblet cell in bronchiolar epithelial cell

[5] = test system: OVA-sensitized/challenged mouse model; assay: Level of IgE and OVA-specific IgE in blood serum (ELISA); settings: 30 mg/kg PO
Protocol: In order to confirm the inhibition effect of test samples prepared in Examples on the level of IgE and OVA-specific IgE in blood serum, following test was performed by the method disclosed in the literature (Kay, A. B., The New England Journal of Medicine, 344, pp 30-37, 2001).
The blood serum and bronchoalveolar lavage fluid (BALF) prepared in Experimental Example 1 was recovered to determine the level of IgE and OVA-specific IgE in blood serum.
The blood serum and bronchoalveolar lavage fluid (BALF) was added to 96-well plates (ELISA plate) and coated with 0.1M NaHCO3 buffer solution (pH 8.3) containing 20 μg/mlof OVA (Sigma, Mo., USA) at 4° C. overnight. After inhibiting nonspecific reaction using by PBS containing 1% bovine serum albumin, the serum for testing was diluted to 1:400 and reacted together for 2 hours at room temperature. After washing, the serum was reacted with diluted (×300) anti-mouse IgE monoclonal antibody (MCA419, Serotec, Oxford, UK) for 2 hours and with diluted (×4000) HRP-conjugated goat anti-rat IgG polyclonal A (STAR110P, Serotec, UK) for 1 hours at room temperature. After washing, the solution was stained with 3,3′,5,5′-tetramethylbenzidine (52-00-02, KPL) substrate and the reaction was stopped by 2N H2SO4 to determine the absorbance using by spectroscopy (Versamax, Molecular Devices, US) at 450 nm.

[6] = test system: OVA-sensitized/challenged mouse model; assay: Lung histology, H&E inflammation score; settings: lung tissue, score 0-3; 30 mg/kg PO
Protocol: In order to confirm the anti-asthmatic effect of test samples prepared in Examples, following histopathological analysis on broncho-alveolar tissue was performed by the method disclosed in the literature (Kwak Y G. et al., J. Clin. Invest., 111, pp 1083-1092, 2003).
The delivered lung tissues of BALB/c mice which had not perform broncho-alveolar lavage was fixed for 24 h in 10% neutral-buffered formalin. After being embedded in paraffin, then made into 4-μm thickness sections, the tissue was stained with H&E solution (hematoxylin; Sigma MHS-16 and eosin, Sigma HT110-I-32) and the inflammation score of five regions in each section chosen in a randomized manner, was determined. (Inflammation score 0: inflamed cells is not found in bronchial surrounding, Inflammation score 1: inflamed cells is sporadically found in bronchial surrounding, Inflammation score 2: thin inflamed cell layer is found in most of bronchial surrounding, Inflammation score 3: thick inflamed cell layer is found in most of bronchial surrounding).

[7] = test system: OVA-sensitized/challenged mouse model; assay: Level of Th2 cytokines (IL-4, IL-5, IL-13) and IL-1β in BALF (ELISA); settings: 30 mg/kg PO
Protocol: In order to confirm the inhibition effect of test samples prepared in Examples on the level of Th2 cytokines (IL-4, IL-5 and IL-13) and IL-1β in bronchoalveolar lavage fluid (BALF), following test was performed by the sandwich enzyme immunosorbent assay method disclosed in the literature (Renz H. et al., J. Exp. Med., […], pp 1175-1180, 1993).
The blood serum and bronchoalveolar lavage fluid (BALF) was added to 96-well plates (ELISA plate) coated with cytokine antibody to induce antigen-antibody reaction for 2 hours at room temperature. The level of Th2 cytokines (IL-4, IL-5 and IL-13) and IL-1β in bronchoalveolar lavage fluid (BALF) was determined using by ELISA kit (Biosource Int. CA, USA) specifically reacting with each cytokine according to the manufacture's manual.

For `CC(C)(O)c1ccccc1CC[C@@H](SCC1(CC(=O)O)CC1)c1cccc(/C=C/c2ccc3ccc(Cl)cc3n2)c1` [M30, Montelukast], the total IgE in blood serum [1] was 1.82 ± 0.4 µg/mL, the “Penh Value” ([2]; methacholine 0 mg/Ml) was 0.49 ± 0.04 and the “Penh Value” ([2]; methacholine 12.5 mg/Ml) was 1.54 ± 0.20. The “Penh Value” ([2]; methacholine 25 mg/Ml) was 1.98 ± 0.37, the “Penh Value” ([2]; methacholine 50 mg/Ml) was 2.51 ± 0.36 and the No. of eosinolphil [3] was 52.03 ± 4.06 10^3 cells/mouse. The “No. of inflammatory cells” value [3] was 106.67 ± 6.48 10^3 cells/mouse, the “PAS + cells/bronchiole” value [4] was 39.21 ± 2.34% and the “level of IgE in serum” value [5] was 4.76 ± 0.73 µg/mL. The “level of OVA-specific IgE” value ([5]; blood serum) was 0.09 ± 0.02 µg/mL, the Inflammation score [6] was 1.25 ± 0.13 and the IL-1β level [7] was 187.03 ± 47.17 pg/mL. For the same compound, the IL-4 level [7] was 32.60 ± 4.53 pg/mL, the IL-5 level [7] was 69.74 ± 7.17 pg/mL and the IL-13 level [7] was 25.93 ± 4.13 pg/mL.
